The text below walks through data of ChEMBL document CHEMBL1201862, “PubChem BioAssay data set” (2004).

The source made the active and inactive calls. A value given as a limit tells only on which side of the number the result lay.

The nature of data set [1]: NIH3T3 cell viability loss – ATP luminescence, mouse fibroblasts, counter-screen, dose response (AID 2010).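 Also: cells exposed to compound for about 90 hours before reading.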 The format is functional, cell-based. (In general: The purpose of a counterscreen is to sort out artefacts and off-target activity.)
The nature of data set [2]: Trypanosoma cruzi growth suppression in host cells – NIH3T3 host cells, beta-gal luminescence, confirmation (AID 2044).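 Also: intracellular parasites grown in NIH/3T3 mouse fibroblasts as host cells; luminescent beta-galactosidase reporter signal from transgenic T. cruzi replicating inside host cells; inhibitors lower the luminescence signal.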 The format is functional, cell-based.
Data set [3] is described as follows: Luminescence Cell-Based Dose Retest to Confirm Inhibitors of Cancer Stem Cells. [Related pubchem assays (depositor defined):AID2717, AID2721]. The format is functional. To be noted: Homo sapiens.
Data set [4] has as its target Cytochrome P450 2C9 (Homo sapiens, UniProt P11712).
Data set [5] has as its target Cytochrome P450 3A4 (Homo sapiens, UniProt P08684).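 Also: CYP3A4 tested as one member of a cytochrome P450 panel screen.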
For data set [6], the target named is Cytochrome P450 2C19 (Homo sapiens, UniProt P33261). Kind of data set: Cytochrome panel assay with activity outcomes. Panel member name: p450-cyp2c19 Compounds with AC50 equal or less than 10 uM are considered active. It counts as functional.
Cytochrome P450 2C19, sequence (P33261 whole entry): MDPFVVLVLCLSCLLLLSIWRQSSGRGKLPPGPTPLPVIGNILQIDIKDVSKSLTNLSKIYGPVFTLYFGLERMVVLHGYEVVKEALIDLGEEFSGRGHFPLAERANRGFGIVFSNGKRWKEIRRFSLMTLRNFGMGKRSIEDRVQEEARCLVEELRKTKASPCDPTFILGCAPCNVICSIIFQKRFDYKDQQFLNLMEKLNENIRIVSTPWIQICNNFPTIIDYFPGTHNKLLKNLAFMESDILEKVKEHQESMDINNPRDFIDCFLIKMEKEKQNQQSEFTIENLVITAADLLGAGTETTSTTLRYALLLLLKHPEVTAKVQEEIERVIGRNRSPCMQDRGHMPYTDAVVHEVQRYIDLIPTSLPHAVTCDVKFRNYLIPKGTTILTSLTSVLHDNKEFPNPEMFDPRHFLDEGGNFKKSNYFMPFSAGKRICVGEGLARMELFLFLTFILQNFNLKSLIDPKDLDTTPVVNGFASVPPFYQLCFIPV
Data set [7] addresses T1, Rac GTPase-activating protein 1 (Homo sapiens, UniProt Q9H0H5).
T1 sequence (Q9H0H5 whole entry): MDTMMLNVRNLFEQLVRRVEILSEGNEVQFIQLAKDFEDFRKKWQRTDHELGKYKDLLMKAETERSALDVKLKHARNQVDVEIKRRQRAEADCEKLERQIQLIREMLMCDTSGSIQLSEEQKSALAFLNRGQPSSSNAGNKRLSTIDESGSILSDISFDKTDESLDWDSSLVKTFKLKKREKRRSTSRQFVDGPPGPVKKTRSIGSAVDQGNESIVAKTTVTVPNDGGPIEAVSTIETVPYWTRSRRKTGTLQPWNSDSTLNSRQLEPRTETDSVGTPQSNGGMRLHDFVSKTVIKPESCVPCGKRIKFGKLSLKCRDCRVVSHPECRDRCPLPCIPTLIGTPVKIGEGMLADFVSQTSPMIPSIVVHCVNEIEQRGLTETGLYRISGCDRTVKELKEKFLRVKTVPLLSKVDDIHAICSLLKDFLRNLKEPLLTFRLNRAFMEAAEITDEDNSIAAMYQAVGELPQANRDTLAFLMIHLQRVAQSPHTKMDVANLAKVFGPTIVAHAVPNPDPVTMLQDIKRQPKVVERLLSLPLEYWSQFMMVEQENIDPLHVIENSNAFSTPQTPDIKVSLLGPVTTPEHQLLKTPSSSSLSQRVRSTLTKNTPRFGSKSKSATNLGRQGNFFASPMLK
Kind of data set: blockers of MgcRacGAP-driven Rac1 GTP hydrolysis – biochemical, ADP Hunter fluorescence, primary and confirmatory, confirmation (AID 624330). It counts as functional.

Data set [8] relates to Streptococcus. As to the kind of experiment: GAS UMAA2166 growth inhibition – luminescence, BacTiterGlo, counter-screen for streptokinase expression inhibitor project, dose response (AID 1915).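 Also: potency for reduction of bacterial viability or growth.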 The format is functional, organism-based. The settings on record: read-out: EC50.
Data set [9] relates to Streptococcus sp. 'group A'. Kind of data set: Streptococcus pyogenes SK(-)GAS viability under kanamycin – luminescence, BacTiterGlo, confirmation, counter-screen for streptokinase expression inhibitor project, dose response (AID 1900). It counts as functional, organism-based.

Cytochrome P450 2C9, sequence (P11712 whole entry): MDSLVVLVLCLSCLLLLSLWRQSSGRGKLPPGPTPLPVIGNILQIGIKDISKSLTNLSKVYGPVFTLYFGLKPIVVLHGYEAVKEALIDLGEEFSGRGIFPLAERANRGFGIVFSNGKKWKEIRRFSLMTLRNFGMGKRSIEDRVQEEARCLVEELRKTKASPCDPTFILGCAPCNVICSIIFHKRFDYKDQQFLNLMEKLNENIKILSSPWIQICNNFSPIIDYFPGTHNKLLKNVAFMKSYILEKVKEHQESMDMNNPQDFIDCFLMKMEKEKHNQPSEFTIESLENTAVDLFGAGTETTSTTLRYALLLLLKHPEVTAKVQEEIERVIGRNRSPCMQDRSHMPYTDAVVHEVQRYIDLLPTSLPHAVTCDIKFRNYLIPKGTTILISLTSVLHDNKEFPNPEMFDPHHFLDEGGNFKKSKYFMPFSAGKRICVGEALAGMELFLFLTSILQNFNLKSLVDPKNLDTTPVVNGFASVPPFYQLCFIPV
Cytochrome P450 3A4, sequence (P08684 whole entry): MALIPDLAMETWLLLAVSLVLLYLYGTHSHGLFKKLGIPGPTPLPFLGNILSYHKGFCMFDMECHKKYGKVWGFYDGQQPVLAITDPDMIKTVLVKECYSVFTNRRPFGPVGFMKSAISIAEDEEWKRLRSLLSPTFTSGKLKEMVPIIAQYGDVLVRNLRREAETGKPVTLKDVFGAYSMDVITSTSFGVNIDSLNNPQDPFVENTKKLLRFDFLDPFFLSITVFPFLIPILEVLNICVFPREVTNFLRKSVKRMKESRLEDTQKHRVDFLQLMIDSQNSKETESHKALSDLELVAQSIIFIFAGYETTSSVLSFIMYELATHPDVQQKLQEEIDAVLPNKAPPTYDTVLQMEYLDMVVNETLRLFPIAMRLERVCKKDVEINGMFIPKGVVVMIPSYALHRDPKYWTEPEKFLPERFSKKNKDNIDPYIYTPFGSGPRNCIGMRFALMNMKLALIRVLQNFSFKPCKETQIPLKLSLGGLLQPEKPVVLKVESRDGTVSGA

`Cc1ccc(CNC(=O)CCC2CCCN(Cc3cccc4ncccc34)C2)o1` (stereo not drawn): the EC50 in data set [1] is > 60 µM (inconclusive); in data set [2], 0.193 µM (active).

As for `OC(CN1CCN(c2ccccn2)CC1)Cn1c2ccc(Cl)cc2c2cc(Cl)ccc21` (stereo not drawn), in data set [3], the AC50 is 3.21 µM (active).

Take `c1cncc(CNc2nc(-c3ccc4c(c3)OCO4)nc3ccccc23)c1`: the concentration at half-maximal activity (AC50) in data set [4] was 0.398 µM (inconclusive).

For `COc1ccc(NC(=O)N2CC3(CCN(S(=O)(=O)c4ccccc4)CC3)C2)cc1`, the concentration at half-maximal activity (AC50) in [5] is 15.8 µM (inconclusive).

Take `O=C(Nc1ccccc1)N1CCCC2(CCN(C(=O)c3cnccn3)CC2)C1`: in data set [5], the concentration at half-maximal activity (AC50) was 25.1 µM (inconclusive).

As for `CC(C)CC(=O)c1c(O)c(C=O)c(O)c2c1O[C@@]1(C)[C@@H](C2)C[C@H]2C[C@@H]1C2(C)C` [EUGLOBAL G1], the half-maximal activity concentration (AC50) in data set [3] is 2.68 µM (active).

On to `O=[N+]([O-])c1ccc(CNCCc2ccccc2)cc1`, for which the values for the half-maximal effective concentration (EC50) in data set [1] and in data set [2] were > 60 µM (not active) and 0.528 µM (active), respectively.

On to `Oc1cc(C(F)(F)F)nc2c(OC(F)(F)F)cccc12`, for which the AC50 in data set [3] is 22.4 µM (active).

Consider `COc1ccc(-n2nc3cc(C)c(NC(=S)NC(=O)c4ccccc4C)cc3n2)cc1`, for which, in data set [4], the AC50 is 6.31 µM (inconclusive).

`Cc1ccc(S(=O)(=O)CCCS(=O)(=O)c2ccc(C)cc2)cc1`: the half-maximal activity concentration (AC50) in data set [4] was 5.01 µM (inconclusive).

For `CC(C)c1nc2sc3ccccc3c(=O)c2c(=O)n1Cc1ccccc1`, the half-maximal activity concentration (AC50) in data set [3] was 0.796 µM (active).

For `O=C(Nc1ccccc1C(=O)NCC1CCCO1)c1ccc(Cl)cc1Cl` (stereo not drawn), the AC50 in data set [5] was 4.47 µM (inconclusive).

As to `Cc1nc2c([nH]1)c(=O)n(C)c(=O)n2Cc1ccco1` [FURAFYLLINE], the AC50 result in [6] is reported as “inconclusive”.

With `CN(C)CCCNCC(=O)c1c(-c2ccccc2)n(C)c2ccccc12`, in data set [7], the half-maximal inhibitory concentration (IC50) was 94.7 µM (active).

As for `O=C(O)/C(=C\c1ccncc1)c1cccc2ccccc12`, in [4], the half-maximal activity concentration (AC50) was 3.16 µM (inconclusive).

`Nc1c(C(O)(C(F)(F)F)C(F)(F)F)cc(C(O)(C(F)(F)F)C(F)(F)F)c2ccccc12`: the AC50 in data set [3] was 2.46 µM (active).

`O=C1CSC(=S)N1Nc1ccccc1`: in data set [7], the 50% inhibitory concentration (IC50) was 54 µM (active).

Regarding `C/C(=C\C(=O)c1ccccc1)Nc1ccc(N2CCOCC2)cc1`, the concentration giving a half-maximal response (EC50) was > 60 µM (not active) in [1] and 6.78 µM (active) in data set [2].

Consider `CC(=O)Nc1ccc(Nc2ncnc3c2cnn3-c2ccccc2)cc1`, for which, in [5], the half-maximal activity concentration (AC50) was 35.5 µM (inconclusive).

Turning to `Cc1ccc(NC(=O)CCC(=O)c2ccc(F)cc2)cc1Cl`, the half-maximal activity concentration (AC50) in data set [4] is 0.891 µM (inconclusive).

As to `COc1ccc(Oc2ncc3ncc(=O)n(C4CC4)c3n2)cc1`, the AC50 was 25.1 µM (inconclusive) in data set [5], 25.1 µM (inconclusive) in [4] and 0.316 µM (inconclusive) in data set [6] (read-out: AC50).

For the compound `Cc1cccc(C(=O)N/N=C/c2ccc(OCC(=O)N3CCCCC3)cc2)c1`, in data set [4], the AC50 was 39.8 µM (inconclusive).

Take `C/N=c1\scc(-c2ccc(OC)cc2)n1/N=C(\C)c1cccnc1`: the EC50 was > 30 µM (not active) in data set [1] and 1.79 µM (active) in data set [2].

`Cn1c(=O)[nH]c(N)c(Br)c1=O`: the 50% inhibitory concentration (IC50) in [7] is 84.3 µM (active).

Take `Fc1ccccc1Cc1noc(CN2CCN(Cc3ccc4c(c3)OCO4)CC2)n1`: the figures for the EC50 in [1] and in data set [2] were > 60 µM (not active) and 1.03 µM (active), respectively.

As to `COC(=O)C(C)(C(=O)OC)c1ccc([N+](=O)[O-])cn1`, in data set [6] (read-out: AC50), the AC50 was 39.8 µM (inconclusive).

In the case of `CC(C)CC(=O)Nc1sc2c(c1C#N)CC(C)(C)NC2(C)C`, the AC50 is 14.1 µM (inconclusive) in [5] and 28.2 µM (inconclusive) in [6] (read-out: AC50).

In the case of `NC(S)=Nc1cc2ccccc2c2ccccc12`, the AC50 in data set [4] was 0.282 µM (inconclusive).

For `CCN(CC)c1ccc(NC(=O)COC(=O)Cc2ccsc2)cc1`, the IC50 in data set [7] was 38 µM (active).

Turning to `CCNc1nc(NCC)nc(N/N=C/c2ccc(O)c(O)c2)n1`, in [7], the half-inhibitory concentration (IC50) was 45.5 µM (active).

Consider `CC(=O)Nc1ccc(OCC(O)CN2CCN(c3ccc(C)c(Cl)c3)CC2)cc1` (stereo not drawn), for which the half-maximal activity concentration (AC50) in data set [3] was 7.01 µM (active).

For `O=C1CN(c2nc(-c3ccccc3)c3cc(Br)ccc3n2)c2ccccc2N1`, in data set [5], the half-maximal activity concentration (AC50) is 7.08 µM (inconclusive).

In the case of `CCCCNC(=O)C1C2C=CC3(CN(Cc4ccccc4Cl)C(=O)C13)O2` (stereo not drawn), the half-maximal activity concentration (AC50) in [4] was 17.8 µM (inconclusive).

With `C/C(Cn1cnc([N+](=O)[O-])n1)=N/NC(=O)COc1c(Cl)cc(Cl)cc1Cl`, the EC50 in data set [1] is > 60 µM (not active); in [2], 0.143 µM (active).

In the case of `CCCCN1CSC(=S)N(Cc2ccccc2)C1`, the AC50 in data set [5] was 3.16 µM (inconclusive); in data set [4], 7.94 µM (inconclusive).

For the compound `CCOc1cc(/C=N/NC(=O)c2cc(C)[nH]n2)ccc1OC(=O)c1ccc([N+](=O)[O-])cc1`, the concentration at half-maximal activity (AC50) in [5] was 22.4 µM (inconclusive); in data set [4] it was 1.78 µM (inconclusive); in data set [6] it was “inconclusive”.

For the compound `Cc1ccc(-c2nc(C(=O)NCCCN3CCOCC3)cc3c2[nH]c2ccccc23)cc1`, the EC50 was > 30 µM (not active) in [1] and 1.36 µM (active) in [2].

In the case of `O=c1[nH]c2ccccc2n2c(S)nnc12`, the concentration for half-maximal inhibition (IC50) in data set [7] was 109 µM (active).

In the case of `COc1ccc(NC2CCCN(C(=O)c3ccc(CSC)o3)C2)cc1OC` (stereo not drawn), the half-inhibitory concentration (IC50) in data set [7] is 109 µM (active).

In the case of `CC(=O)Nc1cc(C(F)(F)F)ccc1Oc1cccc(Br)c1`, the half-maximal activity concentration (AC50) in [5] is 12.6 µM (inconclusive); in [6] (read-out: AC50), 0.316 µM (inconclusive).

For `CC(=O)[C@@H]1CC[C@@H]2[C@@H]3C[C@H](C)C4=CC(=O)CC[C@@]4(C)[C@H]3[C@H](O)C[C@]21C`, in [5], the concentration at half-maximal activity (AC50) is 7.94 µM (inconclusive).

For `Cc1cc(N(CN2CCCC2=O)C(=O)c2ccc(F)cc2)no1`, in [5], the half-maximal activity concentration (AC50) is 3.98 µM (inconclusive).

For `O=C(NCC(c1ccco1)N1CCCC1)c1ccccc1Sc1ccc(C(F)(F)F)cc1[N+](=O)[O-]` (stereo not drawn), the 50% effective concentration (EC50) in [1] was > 60 µM (not active); in data set [2], 1.64 µM (active).

Take `O=C(N/N=C/c1ccc(Cl)c([N+](=O)[O-])c1)c1cc(-c2ccccc2)nc2ccccc12`: in data set [3], the concentration at half-maximal activity (AC50) was 2.08 µM (active).

On to `COc1ccc(Cc2nnc(NC(=O)c3cccc([N+](=O)[O-])c3C)s2)cc1`, for which, in data set [4], the half-maximal activity concentration (AC50) was 0.794 µM (inconclusive).

Turning to `N#Cc1ccccc1S(=O)(=O)N1CCN(C(=O)Cc2coc3cc(O)ccc23)CC1`, in data set [7], the IC50 was 32.6 µM (active).

Regarding `CCOC(=O)c1c(O)nc(O)c(CC)c1C`, the AC50 in data set [6] (read-out: AC50) is 2.51 µM (inconclusive).

For the compound `O=c1c2c(-c3ccc(Cl)cc3)csc2nc2n1CCC2`, the half-maximal activity concentration (AC50) in data set [5] is 12.6 µM (inconclusive).

With `O=C(c1ccco1)N1CCN(C(=O)C2(S(=O)(=O)c3ccc(Cl)cc3)CC2)CC1`, the AC50 in data set [5] was 25.1 µM (inconclusive); in data set [4] it was 17.8 µM (inconclusive); in [6] (read-out: AC50), 28.2 µM (inconclusive).

As for `O=C(Nc1cccc2ccccc12)c1ccc([N+](=O)[O-])s1`, the concentration giving a half-maximal response (EC50) in [1] was > 60 µM (not active); in data set [2], 0.407 µM (active).

In the case of `Brc1ccc(OCCn2ccnc2)cc1`, the EC50 in data set [1] was > 60 µM (not active); in data set [2] it was 3.15 µM (active).

Turning to `Fc1ccc(N2CCN(c3ncnc4c3nnn4Cc3ccccc3Cl)CC2)cc1`, the concentration for a half-maximal effect (EC50) in data set [1] is > 60 µM (inconclusive); in [2], 2.46 µM (active).

`CCNc1ncc2nc(-c3ccccc3)c(=O)n(Cc3cccc(OC)c3)c2n1`: the AC50 in data set [6] (read-out: AC50) is 39.8 µM (inconclusive).

For `CC(=O)Nc1ccc(S(=O)(=O)c2ccc([N+](=O)[O-])cc2)cc1`, the 50% effective concentration (EC50) is > 60 µM (not active) in data set [1] and 0.661 µM (active) in data set [2].

As to `CCCC/C=C/C(NC(=O)c1ccc(C(F)(F)F)cc1)c1ccccc1` (stereo not drawn), in data set [5], the half-maximal activity concentration (AC50) was 10 µM (inconclusive).

Take `C/C(=N\NC(=O)c1cc2ccccc2cc1O)c1cc2ccccc2o1`: the figures for the 50% effective concentration (EC50) in data set [8] and in data set [9] were 4.11 µM (active) and 1.77 µM (active), respectively.

As usually defined, the EC50 is the concentration that produces a half-maximal response. As a reminder, the AC50 is the concentration at which the activity in the assay is half-maximal. In general, IC50 refers to the concentration that inhibits the measured activity by half.
